Results on eleven molecules are retold here after patent US6060608A, “Analogs of CC-1065 and the duocarmycins” (The Scripps Research Institute, priority 1999, dated 2000).

For the experiment, the system named is w794 duplex DNA. The experiment is described as follows: DNA alkylation selectivity and efficiency within w794 DNA, thermally-induced strand cleavage and PAGE. In kind it is biochemical, SV40. Particulars: for DNA alkylation efficiency, natural/unnatural enantiomer ratio: (+)/ent-(-). The source says: DNA Alkylation Selectivity and Efficiency. The DNA alkylation properties of the agents were examined within w794 duplex DNA, a 144 base-pair segment of duplex DNA for which comparative results are available for related agents. The alkylation site identification and the assessment of the relative selectivity among the available sites were obtained by thermally-induced strand cleavage of the singly 5' end-labeled duplex DNA after exposure to the agents. Following treatment of the end-labeled duplex DNA with a range of agent concentrations, the unbound agent was removed by EtOH precipitation of the DNA. Redissolution of the DNA in aqueous buffer, thermolysis (100° C., 30 min) to induce strand cleavage at the sites of DNA alkylation, denaturing high resolution polyacrylamide gel electrophoresis (PAGE) adjacent to Sanger dideoxynucleotide sequencing standards, and autoradiography led to identification of the DNA cleavage and alkylation sites. The DNA alkylation reaction selectivities observed under the incubation conditions for the agents detailed herein have proven identical to the alkylation selectivities observed with shorter or extended reaction periods or when the reactions were conducted at different temperatures (37 or 4° C., 0.5-7 d). As discussed below, the rates and efficiencies but not final relative efficiencies of DNA alkylation were altered by changing the reaction temperatures.
DNA Alkylation Properties. […] The DNA alkylation reaction was examined within w794 DNA for which comparative results are available for past agents. The alkylation site identification was obtained by thermal strand cleavage of the singly 5' end-labeled duplex DNA after exposure to the agents. Following treatment of the labeled DNA with a range of agent concentrations, the unbound agent was removed by EtOH precipitation of the DNA. Redissolution of the DNA in aqueous buffer, thermolysis at 100° C. (30 min) to induce depurination and strand cleavage at the adenine N3 or guanine N3 minor groove alkylation sites, denaturing high resolution PAGE adjacent to Sanger sequencing standards and autoradiography provided the DNA cleavage and alkylation sites.
DNA Alkylation Studies: selectivity and Efficiency. General procedures, the preparation of singly ^32 P 5' end-labeled double stranded DNA, the agent binding studies, gel electrophoresis, and autoradiography were conducted according to standard procedures. Eppendorf tubes containing the 5' end-labeled DNA (9 μL) in TE buffer (10 mM Tris, 1 mM EDTA, pH 7.5) were treated with the agent in DMSO (1 μL at the specified concentration). The solution was mixed by vortexing and brief centrifugation and subsequently incubated at 4 or 25° C. for 24 h (natural enantiomers) and 25 or 37° C. (unnatural enantiomers) for 72 h. The covalently modified DNA was separated from unbound agent by EtOH precipitation and resuspended in TE buffer (10 μL). The solution of DNA in an Eppendorf tube sealed with parafilm was warmed at 100° C. for 30 min to induce cleavage at the alkylation sites, allowed to cool to 25° C. and centrifuged. Formamide dye (0.03% xylene cyanol FF, 0.03% bromophenol blue, 8.7% Na2 EDTA 250 mM) was added (5 μL) to the supernatant. Prior to electrophoresis, the sample was denatured by warming at 100° C. for 5 min, placed in an icebath, and centrifuged, and the supernatant (3 μL) was loaded directly onto the gel. Sanger dideoxynucleotide sequencing reactions were run as standards adjacent to the reaction samples. Polyacrylamide gel electrophoresis (PAGE) was run on an 8% sequencing gel under denaturing conditions (8 M urea) in TBE buffer (100 mM Tris, 100 mM boric acid, 0.2 mM Na2 EDTA) followed by autoradiography.
DNA Alkylation of w794 DNA. Eppendorf tubes containing the 5'-end labeled DNA (9 μL) in TE buffer (10 mM Tris, 1 mM EDTA, pH 7.2) were treated with the agent in DMSO (1 μL at the specified concentration). […]

Like-named read-outs stand apart in the source and are kept apart here.

For the molecule `COc1cc2cc(C(=O)N3CC4C(F)(F)C45C3=CC(=O)c3ccccc35)[nH]c2c(OC)c1OC` (racemic) [compound 224], the “DNA alkylation properties, comparison in words” value (“DNA alkylation properties” for short) was “steadily increase as the temperature was decreased from 37 to 25 to 4 °C”. In addition, under “listed as F2 CBI-TMI”, the “DNA alkylation sequence selectivity” value is reported as “only adenine N3 alkylation was detected”. Further, the “DNA alkylation less efficient than CBI-TMI” value (racemic) is 100-1000 ×. Further, the “DNA alkylation less efficient, by densitometry, average of several comparisons” value (racemic F2 CBI-TMI versus (+)-CBI-TMI) was 675-725 ×.

`N#Cc1ccc2c(c1)[C@]13C[C@H]1CN(C(=O)c1cc4c5c(ccc4[nH]1)N(C(N)=O)CC5)C3=CC2=O` [(-)-CCBI-CDPI1]: the “DNA alkylation properties” value is recorded as “(-)-CCBI-indole2 >(-)-CCBI-CDPI1>(-)-CCBI-TMI”.

Take `COc1cc2cc(C(=O)N3C[C@@H]4C[C@]45C3=CC(=O)c3ccc(C#N)cc35)[nH]c2c(OC)c1OC` [ent-(-)-CCBI-TMI (35)]: the “DNA alkylation properties” value is listed as “nearly indistinguishable”. In addition, the “DNA alkylation properties” value (listed as (-)-CCBI-TMI) is “(-)-CCBI-indole2 >(-)-CCBI-CDPI1>(-)-CCBI-TMI”.

With `N#Cc1ccc2c(c1)[C@]13C[C@H]1CN(C(=O)c1cc4cc(NC(=O)c5cc6ccccc6[nH]5)ccc4[nH]1)C3=CC2=O` [(-)-CCBI-indole2], the “DNA alkylation properties” value was “(-)-CCBI-indole2 >(-)-CCBI-CDPI1>(-)-CCBI-TMI”.

As to `COc1cc2cc(C(=O)N3C[C@H]4C[C@@]45C3=CC(=O)c3ccc(C#N)cc35)[nH]c2c(OC)c1OC` [(+)-CCBI-TMI (35)], the “DNA alkylation properties” value is “exhibited the same selectivity and efficiency of DNA alkylation”. The “concentration of detectable alkylation of high affinity site 5'-AATTA” value (25° C., 24 h) is listed as 10^-6 to 10^-7 M.

As for `N#Cc1ccc2c(c1)C13CC1CN(C(=O)c1cc4c5c(ccc4[nH]1)N(C(N)=O)CC5)C3=CC2=O` (single isomer, unassigned) [compound 39], the “DNA alkylation sequence selectivity” value is “strong preference but not absolute requirement for the fourth 5' base to be A or T versus G or C”.

Take `CC(C)(C)OC(=O)N1CC2CC23C1=CC(=O)c1ccccc13` (single isomer, unassigned; (+)) [(+)-N-BOC-CBI, reference compound]: the “DNA alkylation efficiency, natural/unnatural enantiomer ratio” value was 5-10 ×.

As for `CC(C)(C)OC(=O)N1C[C@H]2C[C@@]23C1=CC(=O)c1ccc(C#N)cc13` [(+)-N-BOC-CCBI, N-(tert-Butyloxycarbonyl)-7-cyano-1,2,9,9a-tetrahydrocyclopropa[c]benz[e]indol-4-one], the “DNA alkylation efficiency, natural/unnatural enantiomer ratio” value was 1-2 ×.

Take `CCOC(=O)C(=O)N1CC(CCl)c2c1cc(O)c1ccccc21` (stereo not shown) [compound 114, 1-Chloromethyl-3-(2-ethoxy-1,2-dioxoethyl)-5-hydroxy-1,2-dihydro-3H-benz[e]indole]: the “DNA alkylation properties” value was “more effective”.

Turning to `COC(=O)c1cc2c([nH]1)C(=O)C=C1N(C(=O)c3cc4cc(OC)c(OC)c(OC)c4[nH]3)CC3CC123` (single isomer, unassigned) [ent-(-)-duocarmycin SA (2), reference compound], the “DNA alkylation properties” value is “slightly more effective”.

Consider `COc1ccc2c(c1)C13CC1CN(C(=O)OC(C)(C)C)C3=CC2=O` (single isomer, unassigned; (+)) [(+)-N-BOC-MCBI, reference compound], for which the “DNA alkylation efficiency, natural/unnatural enantiomer ratio” value is given as 1-2 ×.
